The record followed here is ChEMBL document CHEMBL1139569, “Hologram quantitative structure-activity relationships for a series of farnesoid X receptor activators” (Bioorg Med Chem Lett, 2005).

Some results are limits rather than exact numbers.

In the first experiment the target is T1, Bile acid receptor (Homo sapiens, UniProt Q96RI1).
T1 sequence (Q96RI1 whole entry): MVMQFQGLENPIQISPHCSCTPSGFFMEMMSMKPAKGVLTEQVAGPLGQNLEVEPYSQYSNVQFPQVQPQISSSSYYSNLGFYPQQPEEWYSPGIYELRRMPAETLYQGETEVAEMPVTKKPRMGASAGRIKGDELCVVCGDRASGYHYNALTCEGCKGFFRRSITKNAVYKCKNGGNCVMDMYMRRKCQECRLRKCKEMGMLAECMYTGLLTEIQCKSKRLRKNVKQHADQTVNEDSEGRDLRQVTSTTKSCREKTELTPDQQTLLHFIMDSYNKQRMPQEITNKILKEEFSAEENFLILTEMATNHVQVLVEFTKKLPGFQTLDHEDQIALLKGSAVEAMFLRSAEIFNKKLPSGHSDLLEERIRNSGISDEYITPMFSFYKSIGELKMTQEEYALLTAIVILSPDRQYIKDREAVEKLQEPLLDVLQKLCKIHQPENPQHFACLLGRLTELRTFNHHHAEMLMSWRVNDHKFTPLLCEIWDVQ
Nature of the experiment: (§1) Effective concentration against farnesoid X receptor (FXR).
`COC(=O)/C=C/c1cccc(N(Cc2ccc(-c3cccc(OC)c3)cc2)C(=O)C2CCCCC2)c1` had an EC50 of 77.6 nM.

Turning to `COC(=O)/C=C/c1cccc(N(Cc2ccc(-c3c(OC)cccc3OC)cc2)C(=O)NC(C)C)c1`, the midpoint of the response, the EC50, lay at 562 nM. This EC50 lies about 7.2-fold higher than the previous one.

For `COC(=O)/C=C/c1cccc(N(Cc2ccc(/C=C/c3c(Cl)cccc3Cl)cc2)C(=O)C2CCCCC2)c1`, the EC50 is 151 nM.

In the case of `COC(=O)/C=C/c1cccc(N(Cc2ccc(/C=C/c3ccc(F)cc3)cc2)C(=O)C2CCCCC2)c1`, a half-maximal effect (EC50) was put at 186 nM.

In turn, `COC(=O)/C=C/c1cccc(N(Cc2ccc(-c3cc(Cl)ccc3OC)cc2)C(=O)C2CCCCC2)c1` had an EC50 of 234 nM.

In turn, `COC(=O)/C=C/c1cccc(N(Cc2cc(OC)cc(OC)c2)C(=O)C2CCCCC2)c1` gave an EC50 of 603 nM.

Consider `COC(=O)/C=C/c1cccc(N(Cc2ccc(/C=C/C(=O)OC(C)(C)C)cc2O)C(=O)C2CCCCC2)c1`, for which the EC50 is 1000 nM.

In the case of `COC(=O)/C=C/c1cccc(N(Cc2ccc(/C=C/C(=O)O)cc2)C(=O)C2CCCCC2)c1`, the EC50 is 1000 nM.

`COC(=O)/C=C/c1cccc(N(Cc2ccc(-c3ccc(OC(F)(F)F)cc3)cc2)C(=O)C2CCCCC2)c1`: the EC50 was 263 nM.

As for `COC(=O)/C=C/c1cccc(N(Cc2ccc(-c3cccc(C)c3)cc2)C(=O)NC(C)C)c1`, the EC50 is 1320 nM.

Regarding `COC(=O)/C=C/c1cccc(N(Cc2ccc(/C=C/c3cccc(F)c3)cc2)C(=O)NC(C)C)c1`, the EC50 is 468 nM.

Turning to `COC(=O)/C=C/c1cccc(N(Cc2ccc(-c3cccc(OC)c3)cc2)C(=O)C(C)C)c1`, the midpoint of the response, the EC50, lay at 72.4 nM.

The compound `COC(=O)/C=C/c1cccc(N(Cc2ccc(-c3cccc(OC(F)(F)F)c3)cc2)C(=O)C2CCCCC2)c1` gave an EC50 of 417 nM.

On to `COC(=O)/C=C/c1cccc(N(Cc2ccc(-c3cccc(Cl)c3)cc2)C(=O)NC(C)C)c1`, for which a half-maximal response (EC50) required 1410 nM.

As for `COC(=O)/C=C/c1cccc(N(Cc2ccc(/C=C/c3cccc(Cl)c3)cc2)C(=O)C(C)C)c1`, a half-maximal response (EC50) required 162 nM.

Turning to `COC(=O)/C=C/c1cccc(N(Cc2ccc(/C=C/c3ccccc3)cc2)C(=O)C(C)C)c1`, the EC50 was 64.6 nM.

In turn, `COC(=O)/C=C/c1cccc(N(Cc2ccc(-c3ccc4c(c3)OCO4)cc2)C(=O)C(C)C)c1` gave an EC50 of 19.1 nM.

The compound `COC(=O)/C=C/c1cccc(N(Cc2ccc(/C=C/c3cccc(Cl)c3)cc2)C(=O)C2CCCCC2)c1` showed an EC50 of 166 nM.

Turning to `COC(=O)/C=C/c1cccc(N(Cc2ccc(/C=C/c3ccccc3F)cc2)C(=O)C(C)C)c1`, the response was half-maximal at 70.8 nM (EC50).

The compound `COC(=O)/C=C/c1cccc(N(Cc2ccc(-c3ccc(F)c(Cl)c3)cc2)C(=O)C(C)C)c1` gave an EC50 of 129 nM. Against the preceding compound, the EC50 is about 1.8-fold higher.

`CC(C)(C)OC(=O)/C=C/c1ccc(CN(C(=O)C2CCCCC2)c2cccc(/C=C/C(=O)OC(C)(C)C)c2)cc1`: a half-maximal effect (EC50) was put at 1000 nM.

The target in another experiment is T1, Bile acid receptor. The experiment is described as §1.
`COC/C=C/c1ccc(CN(C(=O)C2CCCCC2)c2cccc(/C=C/C(=O)OC)c2)cc1` had a half-maximal effective concentration (EC50) of 233 nM.

Consider `COC(=O)/C=C/c1cccc(N(Cc2ccc(/C=C/c3ccccc3F)cc2)C(=O)C2CCCCC2)c1`, for which the EC50 amounted to 64 nM. This EC50 is about 3.6-fold lower than that of the compound before.

`COC(=O)/C=C/c1cccc(N(Cc2ccc(/C=C/c3c(Cl)cccc3Cl)cc2)C(=O)C2CCCCC2)c1` gave an EC50 of 150 nM.

Compound `COC(=O)/C=C/c1cccc(N(Cc2ccc(-c3ccc(C)s3)cc2)C(=O)C2CCCCC2)c1` yielded an EC50 of 206 nM.

`COC(=O)/C=C/c1cccc(N(Cc2ccc(/C=C/C(=O)OC(C)(C)C)cc2OCc2ccccc2)C(=O)C2CCCCC2)c1` came in with an EC50 of over 1000 nM.

The compound `CCOC/C=C/c1cccc(N(Cc2ccc(/C=C/C(=O)OC(C)(C)C)cc2)C(=O)C2CCCCC2)c1` registered an EC50 of 220 nM.

`COC(=O)/C=C/c1cccc(N(Cc2ccc(/C=C/C(=O)OCc3ccccc3)cc2)C(=O)C2CCCCC2)c1` showed an EC50 of over 1000 nM.

In turn, `COC(=O)/C=C/c1cccc(N(Cc2ccc(/C=C/c3ccc(F)cc3)cc2)C(=O)C2CCCCC2)c1` returned an EC50 of 185 nM.

`COC(=O)/C=C/c1cccc(N(Cc2ccc(/C=C/C(=O)OC(C)(C)C)cc2OC)C(=O)C2CCCCC2)c1` came in with an EC50 of over 1000 nM.

In turn, `COC(=O)/C=C/c1cccc(N(Cc2ccc(-c3ccc4c(c3)OCO4)cc2)C(=O)C2CCCCC2)c1` showed an EC50 of 38 nM.

`COC(=O)/C=C/c1cccc(N(Cc2ccc(/C=C/C(=O)N(C)C)cc2)C(=O)C2CCCCC2)c1` registered an EC50 of over 1000 nM.

`COC(=O)/C=C/c1cccc(N(Cc2ccc(/C=C/c3ccc(OC)cc3)cc2)C(=O)C2CCCCC2)c1` gave an EC50 of 208 nM.

As for `CCOC(=O)COc1cc(/C=C/C(=O)OC(C)(C)C)ccc1CN(C(=O)C1CCCCC1)c1cccc(/C=C/C(=O)OC)c1`, the EC50 was over 1000 nM.

The compound `COC(=O)/C=C/c1cccc(N(Cc2ccc(/C=C/C(=O)OC(C)(C)C)cc2OC(C)=O)C(=O)C2CCCCC2)c1` yielded an EC50 of over 1000 nM.

In the case of `COC/C=C/c1cccc(N(Cc2ccc(/C=C/C(=O)OC(C)(C)C)cc2)C(=O)C2CCCCC2)c1`, a half-maximal response (EC50) required 243 nM.

`CC(C)(C)OC(=O)/C=C/c1cccc(N(Cc2ccc(CCC(=O)OC(C)(C)C)cc2)C(=O)C2CCCCC2)c1`: the EC50 is over 1000 nM.

`COC(=O)/C=C/c1cccc(N(Cc2ccc(/C=C/C(=O)OC(C)(C)C)cc2O)C(=O)C2CCCCC2)c1` gave an EC50 of over 1000 nM.

As for `COC(=O)/C=C/c1cccc(N(Cc2ccc(/C=C/c3scnc3C)cc2)C(=O)C(C)C)c1`, the EC50 was 228 nM.

The compound `COC(=O)/C=C/c1cccc(N(Cc2ccc(/C=C/c3cc(C(F)(F)F)cc(C(F)(F)F)c3)cc2)C(=O)C2CCCCC2)c1` registered an EC50 of 1470 nM.

With `CC(C)(C)OC(=O)/C=C/c1ccc(CN(C(=O)C2CCCCC2)c2cccc(/C=C/C(N)=O)c2)cc1`, the EC50 is over 1000 nM.

Compound `COC(=O)/C=C/c1cccc(N(Cc2ccc(/C=C/C(=O)O)cc2)C(=O)C2CCCCC2)c1` gave a half-maximal effective concentration (EC50) of over 1000 nM.

`COC(=O)/C=C/c1cccc(N(Cc2ccc(/C=C/C(=O)OC(C)(C)C)cc2OS(C)(=O)=O)C(=O)C2CCCCC2)c1` gave an EC50 of over 1000 nM.

`COC(=O)/C=C/c1cccc(N(Cc2ccc(/C=C/c3ccccn3)cc2)C(=O)C(C)C)c1`: the EC50 came to 310 nM.

In the case of `COC(=O)/C=C/c1cccc(N(Cc2ccc(/C=C/C(=O)NC(C)(C)C)cc2)C(=O)C2CCCCC2)c1`, the half-maximal effective concentration (EC50) is over 1000 nM.

In the case of `COC(=O)/C=C/c1cccc(N(Cc2ccc(/C=C/c3ccccn3)cc2)C(=O)C2CCCCC2)c1`, a half-maximal response (EC50) required 309 nM.

The compound `COC(=O)/C=C/c1cccc(N(Cc2ccc(/C=C/c3cccc(Cl)c3)cc2)C(=O)C2CCCCC2)c1` yielded an EC50 of 165 nM.

The compound `COC(=O)/C=C/c1cccc(N(Cc2ccc(/C=C/c3scnc3C)cc2)C(=O)C2CCCCC2)c1` displayed an EC50 of 227 nM.

Consider `COC(=O)/C=C/c1cccc(N(Cc2ccc(/C=C/C(=O)OC(C)(C)C)cc2OC(=O)c2ccccc2)C(=O)C2CCCCC2)c1`, for which the EC50 was over 1000 nM.

On to `COC(=O)/C=C/c1cccc(N(Cc2ccc(-c3c(OC)cccc3OC)cc2)C(=O)C2CCCCC2)c1`, for which the response was half-maximal at 77 nM (EC50). In other words, the double-digit nanomolar range.

`COC(=O)/C=C/c1cccc(N(Cc2ccc(/C=C/c3cccc(F)c3)cc2)C(=O)C2CCCCC2)c1` returned an EC50 of 86 nM. This EC50 and that of the compound before are within 1.5-fold of each other.

`CCOC(=O)/C=C/c1ccc(CN(C(=O)C2CCCCC2)c2cccc(/C=C/C(=O)OC)c2)cc1` had an EC50 of over 1000 nM.

Compound `CC(C)(C)OC(=O)/C=C/c1ccc(CN(C(=O)C2CCCCC2)c2cccc(/C=C/C(=O)OC(C)(C)C)c2)cc1` displayed an EC50 of over 1000 nM.

Turning to `COC(=O)/C=C/c1ccc(CN(C(=O)C2CCCCC2)c2cccc(/C=C/C(=O)OC)c2)cc1`, the EC50 is over 1000 nM.

`COC(=O)/C=C/c1cccc(N(Cc2ccc(-c3ccc(N(C)C)cc3)cc2)C(=O)C2CCCCC2)c1` [FEXARAMINE]: the EC50 amounted to 25 nM.

As a reminder, the EC50 is the concentration at which the effect is half-maximal. Read a low EC50 as higher potency in that assay.
